Measured values as given in the NIST ThermoML archive (doi:10.1021/je0201119).
± gives the expanded uncertainty stated by the source.

Assay: xn = mol fraction of the nth substance listed
Conditions: 92 kPa, Liquid; for mass density: Vibrating tube method

CC(C)(N)CO [2-amino-2-methylpropan-1-ol] + O
mass density (323.15 K, x1 = 0.1005): 980.6 ± 0.16 kg/m3
mass density (323.15 K, x1 = 0.2006): 969.17 ± 0.3 kg/m3
mass density (323.15 K, x1 = 0.2939): 958.38 ± 0.43 kg/m3
mass density (323.15 K, x1 = 0.4075): 946.98 ± 0.59 kg/m3
mass density (323.15 K, x1 = 0.4982): 939.08 ± 0.72 kg/m3
mass density (323.15 K, x1 = 0.5996): 931.58 ± 0.86 kg/m3
mass density (323.15 K, x1 = 0.7028): 924.7 ± 1 kg/m3
mass density (323.15 K, x1 = 0.8016): 918.85 ± 1.1 kg/m3
mass density (323.15 K, x1 = 0.9001): 914.78 ± 1.3 kg/m3
mass density (323.15 K, x1 = 1): 911.24 ± 1.4 kg/m3
viscosity (323.15 K, x1 = 0.0503): 1.244 ± 0.12 mPa·s
viscosity (323.15 K, x1 = 0.0704): 1.466 ± 0.14 mPa·s
viscosity (323.15 K, x1 = 0.1005): 2.03 ± 0.19 mPa·s
viscosity (323.15 K, x1 = 0.2006): 4.66 ± 0.41 mPa·s
viscosity (323.15 K, x1 = 0.2939): 7.85 ± 0.61 mPa·s
viscosity (323.15 K, x1 = 0.4075): 12.17 ± 0.88 mPa·s
viscosity (323.15 K, x1 = 0.4982): 16.26 ± 1.1 mPa·s
viscosity (323.15 K, x1 = 0.5996): 20 ± 1.4 mPa·s
viscosity (323.15 K, x1 = 0.7028): 22.7 ± 1.6 mPa·s
viscosity (323.15 K, x1 = 0.8016): 24.6 ± 1.7 mPa·s
viscosity (323.15 K, x1 = 0.9001): 25.3 ± 1.7 mPa·s
viscosity (323.15 K, x1 = 1): 25.1 ± 1.7 mPa·s
mass density (333.15 K, x1 = 0.0503): 978.15 ± 0.1 kg/m3
mass density (333.15 K, x1 = 0.0704): 976.26 ± 0.12 kg/m3
mass density (333.15 K, x1 = 0.1005): 973.43 ± 0.16 kg/m3
mass density (333.15 K, x1 = 0.2006): 960.92 ± 0.3 kg/m3
mass density (333.15 K, x1 = 0.2939): 949.92 ± 0.43 kg/m3
mass density (333.15 K, x1 = 0.4075): 938.48 ± 0.59 kg/m3
mass density (333.15 K, x1 = 0.4982): 930.56 ± 0.71 kg/m3
mass density (333.15 K, x1 = 0.5996): 923.08 ± 0.85 kg/m3
mass density (333.15 K, x1 = 0.7028): 915.97 ± 0.99 kg/m3
mass density (333.15 K, x1 = 0.8016): 910.36 ± 1.1 kg/m3
mass density (333.15 K, x1 = 0.9001): 906.31 ± 1.3 kg/m3
mass density (333.15 K, x1 = 1): 902.87 ± 1.4 kg/m3
viscosity (333.15 K, x1 = 0.0503): 0.931 ± 0.093 mPa·s
viscosity (333.15 K, x1 = 0.0704): 1.154 ± 0.11 mPa·s
viscosity (333.15 K, x1 = 0.1005): 1.55 ± 0.15 mPa·s
viscosity (333.15 K, x1 = 0.2006): 3.27 ± 0.29 mPa·s
viscosity (333.15 K, x1 = 0.2939): 5.23 ± 0.45 mPa·s
viscosity (333.15 K, x1 = 0.4075): 7.63 ± 0.6 mPa·s
viscosity (333.15 K, x1 = 0.4982): 10 ± 0.75 mPa·s
viscosity (333.15 K, x1 = 0.5996): 11.97 ± 0.87 mPa·s
viscosity (333.15 K, x1 = 0.7028): 13.33 ± 0.96 mPa·s
viscosity (333.15 K, x1 = 0.8016): 14.22 ± 1 mPa·s
viscosity (333.15 K, x1 = 0.9001): 14.53 ± 1 mPa·s
viscosity (333.15 K, x1 = 1): 14.4 ± 1 mPa·s
mass density (343.15 K, x1 = 0.0503): 971.66 ± 0.1 kg/m3
mass density (343.15 K, x1 = 0.0704): 969.29 ± 0.12 kg/m3
mass density (343.15 K, x1 = 0.1005): 965.83 ± 0.16 kg/m3
mass density (343.15 K, x1 = 0.2006): 952.44 ± 0.3 kg/m3
mass density (343.15 K, x1 = 0.2939): 941.28 ± 0.42 kg/m3
mass density (343.15 K, x1 = 0.4075): 930 ± 0.58 kg/m3
mass density (343.15 K, x1 = 0.4982): 921.85 ± 0.7 kg/m3
mass density (343.15 K, x1 = 0.5996): 914.39 ± 0.84 kg/m3
mass density (343.15 K, x1 = 0.7028): 907 ± 0.98 kg/m3
mass density (343.15 K, x1 = 0.8016): 901.65 ± 1.1 kg/m3
mass density (343.15 K, x1 = 0.9001): 897.77 ± 1.2 kg/m3
mass density (343.15 K, x1 = 1): 894.28 ± 1.4 kg/m3
viscosity (343.15 K, x1 = 0.0503): 0.826 ± 0.084 mPa·s
viscosity (343.15 K, x1 = 0.0704): 0.933 ± 0.093 mPa·s
viscosity (343.15 K, x1 = 0.1005): 1.21 ± 0.12 mPa·s
viscosity (343.15 K, x1 = 0.2006): 2.4 ± 0.22 mPa·s
viscosity (343.15 K, x1 = 0.2939): 3.67 ± 0.32 mPa·s
viscosity (343.15 K, x1 = 0.4075): 4.94 ± 0.43 mPa·s
viscosity (343.15 K, x1 = 0.4982): 6.43 ± 0.52 mPa·s
viscosity (343.15 K, x1 = 0.5996): 7.5 ± 0.59 mPa·s
viscosity (343.15 K, x1 = 0.7028): 8.23 ± 0.64 mPa·s
viscosity (343.15 K, x1 = 0.8016): 8.88 ± 0.68 mPa·s
viscosity (343.15 K, x1 = 0.9001): 8.98 ± 0.69 mPa·s
viscosity (343.15 K, x1 = 1): 8.91 ± 0.69 mPa·s
